Data published in US8728537B2, “Compositions for improvement of wound healing” (Cytotools AG, priority 2003, dated 2014).

System: MRC 5 fibroblasts
Assay: Cell biological test of active substance: proliferation of MRC 5 fibroblasts by quantification of cellular DNA after DAPI staining
Assay type: cell-based
Conditions: solutions containing only RC (50 μM) or only chlorite (100 μM)
Description: The MRC 5 cells are seeded at 400 cells/cm^2 in a 24 well cell culture plate. The subsequent cultivation is carried out in an incubator 37° C. and 5 vol. % CO2 in a water vapor saturated atmosphere. After 24 hours of precultivation, the culture medium is suctioned off and the cells are washed with PBS.
After 24, 48 and 72 hours, the proliferation of the cells is determined by quantification of the cellular DNA in a fluorometer (Novostar-Company: BMG Labtechnologies) after DAPI staining. Here, the increased fluorescence in the samples is equal to a proliferation of the cells.
The plate to be measured is washed once per well with 500 μl PBS and then 250 μl PBS is placed in each well. 250 μl lysis buffer are added and the cells are lysed in a shaker at the lowest setting for 30 min at RT. Subsequently, 500 μl DAPI solution is added and the plate is left to stand for a further 10 min at RT.
The plate is measured at 355 nm ex. and 460 nm em. in the Novostar. Normally, work is carried out with a gain adjustment of 1400-1600.
The multiple determinations are averaged and the error values are calculated. The data obtained is evaluated graphically.

Substance: chlorite
- effect on the growth behaviour of the fibroblasts: no effect whatsoever
